1 compound from patent publication US11311538B2, “Compositions and methods for targeting cancers” (YALE UNIVERSITY, priority 2018, dated 2022) can be followed below.

The assay relates to poly-ADP-ribose (PAR). As to the kind of experiment: Western blot of PAR levels in xenograft tumors. Particulars: 24 h post treatment (FIGS. 9A-9B). It is filed as in vivo, mouse. As to the method:
Western Blot analyses. Western blot analysis of protein levels was conducted by loading 30 μg of whole cell lysate onto a 4-20% polyacrylamide gel. Total protein was transferred to a nitrocellulose membrane. After blocking with 5% milk, membranes were incubated with primary antibodies. Antibodies used were: Rabbit monoclonal anti-Fumarase (D9C5,Cell Signaling Technologies) 1:1000 in 5% BSA, mouse monoclonal anti-SDHB (21A11AE7, Abcam) 1:1000 in % 5 milk, mouse monoclonal anti-Vinculin (SPM227, Abcam) 1:1000 in 5% milk, rabbit polyclonal anti-Histone 3 Lysine 36 trimethyl (9050, Abcam) 1:500 in 5% BSA, anti-Histone 3 Lysine 9 trimethyl (D4W1U, Cell Signaling Technologies) 1:1000 in 5% BSA, mouse monoclonal anti-Beta Actin (60008, Protein Tech) 1:5000 5% milk, rabbit Polyclonal anti-Histone H3 (ab1791, Abcam 1:5000 5% BSA), rabbit Polyclonal anti-PAR (4336-BPC-100, Trevigen) 1:5000 5% BSA, mouse monoclonal anti-GAPDH (60004 Protein Tech) 1:5000 5% milk, mouse monoclonal anti-BRCA2 (ab1, Millipore, 1:1000 5% Milk), mouse monoclonal anti-BRCA1 (D-9, Santa Cruz, 1:200 5% milk), mouse monoclonal anti-RAD51(14B4 Novus bio, 1:1000 5% milk). Patient sample blots were reprobed. […] Doxycycline induced knockdown was monitored by western blot as well as by RFP fluorescence from the internal and dox-inducible reporter on the TRIPZ construct. […]
A general note: A western blot detects proteins with antibodies after separation by electrophoresis.

The structures appear in SMILES notation.

`Cn1ncnc1[C@H]1c2n[nH]c(=O)c3cc(F)cc(c23)N[C@@H]1c1ccc(F)cc1` [BMN-673, BMN-673 (Talazoparib)]: the “PAR levels by western blot, SDHB knockdown vs shCTRL tumors” value is on record as “reduced to the same extent”.
